Source: patent publication US20250051347A1, “BIFUNCTIONAL CHIMERIC HETEROCYCLIC COMPOUND AND USE THEREOF AS ANDROGEN RECEPTOR DEGRADER” (Hinova Pharmaceuticals, Inc., priority 2021, published 2025)
Like-named read-outs stand apart in the source and are kept apart here.

Tests used:
[1] = Pharmacokinetics in mice (plasma exposure after oral administration); format: in vivo; conditions: mouse, ICR mice, oral (i.g.) 3 mg/kg, read-out: After oral administration of 3 mg/kg, mouse plasma exposure AUCinf
Procedure: • LC-20AD high performance liquid chromatography (SHIMADZU, Japan) • API4000 triple quadrupole mass spectrometer (Applied Biosystem, USA) • Phenix Winnolin Pharmacokinetic software (Version 6.3, Certara, USA) • High speed freezing centrifuge (Thermo Fisher Scientific) • Analytical balance (Sartorius, SECURA225D-ICN) • ICR mice (Chengdu Dossy Experimental Animals CO., LTD.)
A suitable amount of drug was accurately weighed, and then the medium (5% DMSO, 15% HS-15, 80% DSW) was added to prepare the solution at a concentration of 0.1 mg/ml (i.v.) and 0.3 mg/ml (i.g.).
18 healthy adult ICR mice were divided into two groups (9 mice for i.v. group; 9 mice for i.g. group), and administered by tail vein or by gavage after fasting overnight (free drinking water); using the satellite blood collection method, 3 animals were collected at each time point, and then 0.1 ml of blood obtained at different time points was anticoagulated with EDTA-K2, centrifuged at 4° C. for 5 min to separate the plasma, and stored at −80° C. for detection. The sampling time points after i.v. administration were 5 min, 15 min, 0.5 h, 1 h, 2 h, 4 h, 8 h, 12 h, and 24 h; while the sampling time points for i.g. group were before administration (0 h) as well as 0.5 h, 1 h, 2 h, 4 h, 6 h, 8 h, 12 h, and 24 h after administration. Then, the drug concentration in plasma was determined by LC/MS/MS.

[2] = biological target: T1, androgen receptor (AR) splicing variant AR-v7 (Homo sapiens, UniProt P10275); experiment: Degradation activity on androgen receptor splicing variant AR-v7 in 22RV1 cells (ELISA); format: cell-based; conditions: AR-v7 degradation in 22RV1 cells, 48 h, class symbols
T1 construct: The degradation activity of compounds on AR-v7 in 22RV1 cells; host or cells: 22RV1 cells
T1 sequence (P10275 1-644 isoform P10275-3): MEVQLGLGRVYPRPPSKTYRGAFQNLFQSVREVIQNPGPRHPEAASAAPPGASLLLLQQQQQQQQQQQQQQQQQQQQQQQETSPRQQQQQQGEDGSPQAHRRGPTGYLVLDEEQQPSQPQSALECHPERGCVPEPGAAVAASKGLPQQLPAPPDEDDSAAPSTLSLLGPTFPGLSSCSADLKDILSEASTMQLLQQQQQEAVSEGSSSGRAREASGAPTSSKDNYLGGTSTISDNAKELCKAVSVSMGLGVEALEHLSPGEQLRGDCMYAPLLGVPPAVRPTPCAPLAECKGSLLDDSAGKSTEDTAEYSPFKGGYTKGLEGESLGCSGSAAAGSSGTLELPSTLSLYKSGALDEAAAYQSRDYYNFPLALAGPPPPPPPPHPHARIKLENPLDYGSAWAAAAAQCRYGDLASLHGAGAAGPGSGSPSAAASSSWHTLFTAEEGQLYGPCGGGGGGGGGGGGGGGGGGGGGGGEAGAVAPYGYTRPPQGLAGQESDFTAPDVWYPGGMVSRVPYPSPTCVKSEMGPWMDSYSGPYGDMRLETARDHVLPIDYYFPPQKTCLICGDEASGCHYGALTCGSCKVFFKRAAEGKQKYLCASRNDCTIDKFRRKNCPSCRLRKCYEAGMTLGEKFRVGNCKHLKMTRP

[3] = test system: 22RV1 cells
[4] = Homo sapiens, 22Rv1, 144 h, read-out: 22RV1 IC50 (nM), 22RV1 cells, 6 days culture, CCK-8, OD 450 nm

AUC(0-inf) [1] [ng·h/mL]	DC50 [2] [nM]	IC50 [3, 4] [nM]	IC50 ([3]; read-out: 22RV1 IC50, 22RV1 cells, 6 days culture, CCK-8, OD 450 nm) [nM]	Compound	IC50 ([3]; Homo sapiens, 22Rv1, 144 h, read-out: 22RV1 IC50 (nM)) [nM]
5000 to 30000	11 to 100			Cc1nc(-c2cnc(Oc3ccc(C(C)(C)c4ccc(O[C@H]5C[C@@H](Nc6ccc7c(c6)C(=O)N(C6CCC(=O)NC6=O)C7=O)C5)cc4)cc3)cn2)no1 (stereo partly shown) [Example 598, 2-(2,6-dioxopiperidin-3-yl)-5-(((1s,3s)-3-(4-(2-(4-((5-(5-methyl-1,2,4-oxadiazol-3-yl)pyrazin-2-yl)oxy)phenyl)propan-2-yl)phenoxy)cyclobutyl)amino)isoindolin-1,3-dione]	
100 to 1000				CC(C)(c1ccc(OCc2ccnc(NCC3CNC3)n2)cc1)c1ccc(O[C@H]2C[C@@H](Nc3ccc4c(c3)C(=O)N(C3CCC(=O)NC3=O)C4=O)C2)cc1 (stereo partly shown) [Example 406]	
	< 10	8		Cc1nc(-c2ncc(F)cc2Oc2ccc(C(C)(C)c3ccc(O[C@H]4C[C@H](Nc5ccc6c(c5)C(=O)N(C5CCC(=O)NC5=O)C6=O)C4)cc3)cc2)no1 (stereo partly shown) [Example 512]	
	< 10	4.2		CCC(CC)(c1ccc(Oc2cnc(C(C)=O)cn2)cc1)c1ccc(O[C@H]2C[C@H](Nc3ccc4c(c3)C(=O)N(C3CCC(=O)NC3=O)C4=O)C2)cc1 (stereo partly shown) [Example 294]	
	< 10	16		CC(C)(c1ccc(OCc2ccnc(N3CC[C@H](O)C3)n2)cc1)c1ccc(O[C@H]2C[C@@H](Nc3ccc4c(c3)C(=O)N(C3CCC(=O)NC3=O)C4=O)C2)cc1 (stereo partly shown) [Example 233]	
	< 10	2		CC(C)(c1ccc(OCc2ccnc(N3CC4(COC4)C3)n2)cc1)c1ccc(O[C@H]2C[C@@H](Nc3ccc4c(c3)CN(C3CCC(=O)NC3=O)C4=O)C2)cc1 (stereo partly shown) [Example 91, 3-(5-(((1s,3s)-3-(4-(2-(4-((2-(2-oxa-6-azaspiro[3.3]heptane-6-yl)pyrimidin-4-yl)methoxy)phenyl)propan-2-yl)phenoxy)cyclobutyl)amino)-1-oxoisoindolin-2-yl)piperidin-2,6-dione]	
	< 10	5		CC(C)(c1ccc(OCc2ccnc(N3CC(N4CC(F)C4)C3)n2)cc1)c1ccc(O[C@H]2C[C@H](Nc3ccc4c(c3)C(=O)N(C3CCC(=O)NC3=O)C4=O)C2)cc1 (stereo partly shown) [Example 420]	
	< 10	6		Cc1nnc(-c2cnnc(Oc3ccc(C(C)(C)c4ccc(O[C@H]5C[C@H](Nc6ccc7c(c6)C(=O)N(C6CCC(=O)NC6=O)C7=O)C5)cc4)cc3)c2)o1 (stereo partly shown) [Example 218]	
	< 10	4		Cc1nc(-c2nccc(Oc3ccc(C(C)(C)c4ccc(O[C@H]5C[C@H](Nc6ccc7c(c6)C(=O)N(C6CCC(=O)NC6=O)C7=O)C5)cc4)cc3)n2)no1 (stereo partly shown) [Example 288]	
	11 to 100	40		CC(C)(c1ccc(OCc2ccnc(N3CC4(COC4)C3)n2)cc1)c1ccc(OCC2(Nc3ccc4c(c3)C(=O)N(C3CCC(=O)NC3=O)C4=O)CC2)cc1 (stereo not shown) [Example 564, 5-((1-((4-(2-(4-((2-(2-oxa-6-azaspiro[3.3]heptan-6-yl)pyrimidin-4-yl)methoxy)phenyl)propan-2-yl)phenoxy)methyl)cyclopropyl)amino)-2-(2,6-dioxopiperidin-3-yl)isoindolin-1,3-dione]	
	11 to 100	35		CC(C)(c1ccc(OCCCNc2ccc3c(c2)C(=O)N(C2CCC(=O)NC2=O)C3=O)cc1)c1ccc(OCc2ccnc(N3CCOCC3)n2)cc1 (stereo not shown) [Example 71, 2-(2,6-dioxopiperidin-3-yl)-5-((3-(4-(2-(4-((2-morpholinepyrimidin-4-yl)methoxy)phenyl)propan-2-yl)phenoxy)propyl)amino)isoindolin-1,3-dione]	
	< 10	5		CCC(CC)(c1ccc(Oc2cnc(C(C)=O)nc2)cc1)c1ccc(O[C@H]2C[C@H](Nc3ccc4c(c3)C(=O)N(C3CCC(=O)NC3=O)C4=O)C2)cc1 (stereo partly shown) [Example 132]	
	< 10	6		CC(O)c1ncc(Oc2ccc(C(C)c3ccc(O[C@H]4C[C@H](Nc5ccc6c(c5)C(=O)N(C5CCC(=O)NC5=O)C6=O)C4)cn3)cc2)cn1 (stereo partly shown) [Example 219]	
	< 10	5		CC(C)(c1ccc(OCc2ccnc(C(=O)C3CC3)n2)cc1)c1ccc(O[C@H]2C[C@H](Nc3ccc4c(c3)C(=O)N(C3CCC(=O)NC3=O)C4=O)C2)cc1 (stereo partly drawn) [Example 115, 5-(((trans)-3-(4-(2-(4-((2-(cyclopropanecarbonyl)pyrimidin-4-yl)methoxy)phenyl)propan-2-yl)phenoxy)cyclobutyl)amino)-2-(2,6-dioxopiperidin-3-yl)isoindolin-1,3-dione]	
	11 to 100	22		CC(C)(c1ccc(OCCCNc2ccc3c(c2)C(=O)N(C2CCC(=O)NC2=O)C3=O)cc1)c1ccc(OCc2ccnc(-n3ccnn3)n2)cc1 (stereo not shown) [Example 228, 5-((3-(4-(2-(4-((2-(1H-1,2,3-triazol-1-yl)pyrimidin-4-yl)methoxy)phenyl)propan-2-yl)phenoxy)propyl)amino)-2-(2,6-dioxopiperidin-3-yl)isoindolin-1,3-dione]	
	< 10	10		CC(C)(O)c1ccnc(Oc2ccc(C(C)(C)c3ccc(O[C@H]4C[C@H](Nc5ccc6c(c5)C(=O)N(C5CCC(=O)NC5=O)C6=O)C4)cc3)cc2)n1 (stereo partly shown) [Example 161]	
	< 10	9		CC(C)(c1ccc(Oc2cncnc2)cc1)c1ccc(O[C@H]2C[C@H](Nc3ccc4c(c3)C(=O)N(C3CCC(=O)NC3=O)C4=O)C2)cc1 (stereo partly shown) [Example 477, 2-(2,6-dioxopiperidin-3-yl)-5-(((1r,3r)-3-(4-(2-(4-(pyrimidin-5-yloxy)phenyl)propan-2-yl)phenoxy)cyclobutyl)amino)isoindolin-1,3-dione]	
	< 10	7		Cc1nnc(-c2cnc(Oc3ccc(C(C)(C)c4ccc(O[C@H]5C[C@H](Nc6ccc7c(c6)C(=O)N(C6CCC(=O)NC6=O)C7=O)C5)cc4)cc3)cn2)o1 (stereo partly shown) [Example 589]	
	< 10	5		CC(C)(c1ccc(Oc2ncnc(N3CC4(COC4)C3)c2F)cc1)c1ccc(O[C@H]2C[C@@H](Nc3ccc4c(c3)C(=O)N(C3CCC(=O)NC3=O)C4=O)C2)cc1 (stereo partly shown) [Example 574]	
	< 10	3		CC(C)(c1ccc(OCc2ccnc(N3CC4(COC4)C3)n2)c(F)c1)c1ccc(O[C@H]2C[C@@H](Nc3ccc4c(c3)C(=O)N(C3CCC(=O)NC3=O)C4=O)C2)c(F)c1 (stereo partly shown) [Example 366, 5-(((1s,3s)-3-(4-(2-(4-((2-(2-oxa-6-azaspiro[3.3]heptane-6-yl)pyrimidin-4-yl)methoxy)-3-fluorophenyl)isopropan-2-yl)-2-fluorophenoxy)cyclobutyl)amino)-2-(2,6-dioxopiperidin-3-yl)isoindolin-1,3-dione]	
	< 10	12		Cc1nc(-c2ncc(Oc3ccc(C(C)c4ccc(O[C@H]5C[C@H](Nc6ccc7c(c6)C(=O)N(C6CCC(=O)NC6=O)C7=O)C5)cc4)cc3)cn2)no1 (stereo partly shown) [Example 480]	
	< 10	11		Cc1nc(-c2cnc(Oc3ccc(C4(c5ccc(O[C@H]6C[C@H](Nc7ccc8c(c7)C(=O)N(C7CCC(=O)NC7=O)C8=O)C6)cc5)CCCC4)cc3)cn2)no1 (stereo partly shown) [Example 601]	
	< 10		2.4	Cc1nc(-c2ncc(Oc3ccc(C(C)(C)c4ccc(OC5CC(Nc6ccc7c(c6)CN([C@H]6CCC(=O)NC6=O)C7=O)C5)cc4)cc3)cn2)no1 (stereo partly shown) [Example 101]	
	< 10	6		Cc1nc(-c2nccc(COc3ccc(C(C)(C)c4ccc(O[C@H]5C[C@@H](Nc6ccc7c(c6)C(=O)N(C6CCC(=O)NC6=O)C7=O)C5)cc4)cc3)n2)no1 (stereo partly shown) [Example 278]	

Compound	AUC(0-inf) [1] [ng·h/mL]	DC50 [2] [nM]	IC50 [3, 4] [nM]	IC50 ([3]; read-out: 22RV1 IC50, 22RV1 cells, 6 days culture, CCK-8, OD 450 nm) [nM]	IC50 ([3]; Homo sapiens, 22Rv1, 144 h, read-out: 22RV1 IC50 (nM)) [nM]
CCC(CC)(c1ccc(Oc2ccc(-c3noc(C)n3)nn2)cc1)c1ccc(O[C@H]2C[C@@H](Nc3ccc4c(c3)C(=O)N(C3CCC(=O)NC3=O)C4=O)C2)cc1 (stereo partly shown) [Example 526]		< 10			5
